The values that follow come from paper PMC6270994, “The Hydractinia echinata Test-System. III: Structure-Toxicity Relationship Study of Some Azo-, Azo-Anilide, and Diazonium Salt Derivatives” (Molecules, 2014).

The experiment deals with Hydractinia echinata. Nature of the experiment: Hydractinia echinata test system (HeTS): reduction of Cs+-induced metamorphosis of larvae. The format is in vivo. The settings on record: MRC50 in mol/L = concentration for 50% decrease of metamorphosis vs control, larvae exposed 3 h with Cs+, read after 24 h; for EC50: Hydractinia echinata, read-out: M: experimental Mlog(1/MRC50) (converted).

Consider `Nc1c(N=Nc2ccc(C(=O)O)cc2)ccc2ccccc12` [Compound 26, 4-[2-(1-Aminonaphthalen-2-yl)diazen-1-yl]benzoic acid], for which the EC50 was 18.6 µM.

Turning to `O=C(Nc1ccc(N=Nc2c(S(=O)(=O)O)cc3cc(NC(=O)c4ccccc4)ccc3c2O)cc1)c1ccc(N=Nc2ccc(O)c(C(=O)Nc3ccccc3)c2)cc1` [Compound 118, 7-Benzamido-4-hydroxy-3-{2-[4-(4-{2-[4-hydroxy-3-(phenyl-carbamoyl)phenyl]diazen-1-yl}benzamido)-phenyl]diazen-1-yl}naphthalene-2-sulfonic acid], the EC50 is 224 µM.

Turning to `Nc1ccc(N=Nc2ccc(-c3ccc(N=Nc4c(S(=O)(=O)[O-])cc5cc(S(=O)(=O)[O-])c(N=Nc6ccccc6)c(O)c5c4N)cc3)cc2)c(N)c1.[Na+].[Na+]` [Compound 83, Direct Black 38], the “M: experimental Mlog(1/MRC50)” value amounted to 4.26.
